Assay results from patent US8710089B2, “Triazole derivatives as ghrelin analogue ligands of growth hormone secretagogue receptors” (Zentaris GmbH, priority 2005, dated 2014).

The molecules below were run against T1, human GHS-R 1a (Homo sapiens, UniProt Q92847) (assay: GHS-R 1a receptor-ligand binding assay (membrane preparations from transfected LLC PK-1 cells)). Details: displacement of 125I-His9-ghrelin (60 pM); membranes of LLC PK-1 cells transfected with human GHS-R 1a; mean of at least two independent experiments in triplicates.
T1 construct: expressed in transfected cells; host or cells: LLC PK-1 porcine renal epithelial cells (ECACC No. 86121112), isolated plasma membranes
T1 sequence (Q92847 whole entry): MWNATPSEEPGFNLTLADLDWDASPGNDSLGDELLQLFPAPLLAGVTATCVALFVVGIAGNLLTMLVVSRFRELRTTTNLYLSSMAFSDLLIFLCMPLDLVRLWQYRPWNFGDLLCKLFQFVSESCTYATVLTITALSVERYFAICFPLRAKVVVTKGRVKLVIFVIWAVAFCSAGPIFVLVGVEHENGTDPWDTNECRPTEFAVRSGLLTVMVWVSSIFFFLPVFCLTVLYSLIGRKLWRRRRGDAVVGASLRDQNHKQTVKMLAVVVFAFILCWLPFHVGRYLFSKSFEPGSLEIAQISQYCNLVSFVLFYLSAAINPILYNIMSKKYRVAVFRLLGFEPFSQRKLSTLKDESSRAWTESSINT
Protocol: (J. Med. […] Med. Chem. 2003, 46: 1191-1203), were incubated in homogenization buffer HB [50 mM Tris (pH 7.3), 5 mM MgCl2, 2.5 mM EDTA, and 30 μg/mL bacitracin (Sigma)] for 60 min at 25° C. (steady-state conditions) with 60 pM ^125I-[…]-ghrelin (Amersham) in the presence or absence of competing compounds (compounds of the invention). […] Nonspecific binding was defined using an excess (10^-6 M) of ghrelin. The binding reaction was stopped by addition of 4 mL of ice-cold HB followed by rapid filtration over Whatman GP/C filters presoaked with 0.5% polyethyleneimine to prevent excessive binding of radioligand to the filters. […] IC50 values given are the mean of at least two independent experiments performed in triplicates.

Structure (SMILES)	IC50
COc1ccc(Cn2c(CCc3ccccc3)nnc2[C@@H](Cc2c[nH]c3ccccc23)NC(=O)[C@@H]2C[C@@H](O)CN2)cc1 [compound 40, (2S,4R)—N—((R)-1-(4-(4-methoxybenzyl)-5-phenethyl-4H-1,2,4-triazol-3-yl)-2-(1H-indol-3-yl)ethyl)-4-hydroxypyrrolidine-2-carboxamide]	249 nM
COc1ccc(Cn2c(CCc3c[nH]c4ccccc34)nnc2[C@@H](Cc2c[nH]c3ccccc23)NC(=O)Cc2ccncc2)cc1 [compound 136, N—((R)-1-(5-(2-(1H-indol-3-yl)ethyl)-4-(4-methoxybenzyl)-4H-1,2,4-triazol-3-yl)-2-(1H-indol-3-yl)ethyl)-2-(pyridin-4-yl)acetamide]	106 nM
CCCCCCn1c(CCc2c[nH]c3ccccc23)nnc1[C@@H](Cc1c[nH]c2ccccc12)NC(=O)C(C)(C)N [compound 15, (R)—N-(1-(5-(2-(1H-indol-3-yl)ethyl)-4-hexyl-4H-1,2,4-triazol-3-yl)-2-(1H-indol-3-yl)ethyl)-2-amino-2-methylpropanamide]	120 nM
O=C(Cc1ccccn1)N[C@H](Cc1c[nH]c2ccccc12)c1nnc(CCc2c[nH]c3ccccc23)n1Cc1ccccc1 [compound 60, (R)—N-(1-(5-(2-(1H-indol-3-yl)ethyl)-4-benzyl-4H-1,2,4-triazol-3-yl)-2-(1H-indol-3-yl)ethyl)-2-(pyridin-2-yl)acetamide]	61 nM
CCc1ccc(Cn2c(CCc3ccccc3)nnc2[C@@H](Cc2c[nH]c3ccccc23)NC(=O)c2cnccn2)cc1 [compound 85, (R)—N-(1-(4-(4-ethylbenzyl)-5-phenethyl-4H-1,2,4-triazol-3-yl)-2-(1H-indol-3-yl)ethyl)pyrazine-2-carboxamide]	89 nM
COc1ccc(Cn2c(CCc3ccccc3)nnc2[C@@H](Cc2c[nH]c3ccccc23)NC(=O)[C@H](C)N)cc1 [compound 57, (S)—N—((R)-1-(4-(4-methoxybenzyl)-5-phenethyl-4H-1,2,4-triazol-3-yl)-2-(1H-indol-3-yl)ethyl)-2-aminopropanamide]	140 nM
COc1ccccc1Cn1c(CCc2c[nH]c3ccccc23)nnc1[C@@H](Cc1c[nH]c2ccccc12)NC(=O)C(C)(C)N [compound 25]	96 nM
COc1ccc(Cn2c(CCc3c[nH]c4ccccc34)nnc2[C@@H](Cc2c[nH]c3ccccc23)NC(=O)[C@H]2CCCNC2)cc1 [compound 87, (S)—N—((R)-1-(5-(2-(1H-indol-3-yl)ethyl)-4-(4-methoxybenzyl)-4H-1,2,4-triazol-3-yl)-2-(1H-indol-3-yl)ethyl)piperidine-3-carboxamide]	10 nM
COc1ccc(Cn2c(CCc3c[nH]c4ccccc34)nnc2[C@@H](Cc2c[nH]c3ccccc23)NC(=O)C2CCCNC2)c(OC)c1 (stereo partly drawn) [compound 32, (R)—N-(1-(5-(2-(1H-indol-3-yl)ethyl)-4-(2,4-dimethoxybenzyl)-4H-1,2,4-triazol-3-yl)-2-(1H-indol-3-yl)ethyl)piperidine-3-carboxamide]	10.3 nM
COc1ccc(Cn2c(CCc3c[nH]c4ccccc34)nnc2[C@@H](Cc2c[nH]c3ccccc23)NC(=O)Cc2ccccn2)c(OC)c1 [compound 61, (R)—N-(1-(5-(2-(1H-indol-3-yl)ethyl)-4-(2,4-dimethoxybenzyl)-4H-1,2,4-triazol-3-yl)-2-(1H-indol-3-yl)ethyl)-2-(pyridin-2-yl)acetamide]	34 nM
CC(C)(N)C(=O)N[C@H](Cc1c[nH]c2ccccc12)c1nnc(CCc2ccccc2)n1Cc1cccc2ccccc12 [compound 27, (R)—N-(2-(1H-indol-3-yl)-1-(4-(naphthalen-1-ylmethyl)-5-phenethyl-4H-1,2,4-triazol-3-yl)ethyl)-2-amino-2-methylpropanamide]	126 nM
COc1ccc(Cn2c(CCc3ccccc3)nnc2[C@@H](Cc2c[nH]c3ccccc23)NC(=O)c2ccncc2)cc1 [compound 77, (R)—N-(1-(4-(4-methoxybenzyl)-5-phenethyl-4H-1,2,4-triazol-3-yl)-2-(1H-indol-3-yl)ethyl)isonicotinamide]	119 nM
CC(C)(N)C(=O)N[C@H](Cc1c[nH]c2ccccc12)c1nnc(Cc2ccccc2)n1Cc1cccc2ccccc12 [compound 4, (R)—N-(1-(5-benzyl-4-(naphthalen-1-ylmethyl)-4H-1,2,4-triazol-3-yl)-2-(1H-indol-3-yl)ethyl)-2-amino-2-methylpropanamide]	220 nM
COc1cc(Cn2c(Cc3ccccc3)nnc2[C@@H](Cc2c[nH]c3ccccc23)NC(=O)C(C)(C)N)cc(OC)c1 [compound 108, (R)—N-(1-(4-(3,5-dimethoxybenzyl)-5-benzyl-4H-1,2,4-triazol-3-yl)-2-(1H-indol-3-yl)ethyl)-2-amino-2-methylpropanamide]	250 nM

Second part, the molecule after the results:

IC50	Structure (SMILES)
53 nM	COc1ccc(Cn2c(CCc3c[nH]c4ccccc34)nnc2[C@@H](Cc2c[nH]c3ccccc23)NC(=O)C2CCCCN2)c(OC)c1 (stereo partly drawn) [compound 36, (R)—N-(1-(5-(2-(1H-indol-3-yl)ethyl)-4-(2,4-dimethoxybenzyl)-4H-1,2,4-triazol-3-yl)-2-(1H-indol-3-yl)ethyl)piperidine-2-carboxamide]
87 nM	COc1ccc(Cn2c(CCc3ccccc3)nnc2[C@@H](Cc2c[nH]c3ccccc23)NC(=O)c2ccc(N=[N+]=[N-])cc2)c(OC)c1 [compound 188, N—((R)-1-(4-(2,4-dimethoxybenzyl)-5-phenethyl-4H-1,2,4-triazol-3-yl)-2-(1H-indol-3-yl)ethyl)-4-azidobenzamide]
59 nM	COc1ccc(Cn2c(CCc3ccccc3)nnc2[C@@H](Cc2c[nH]c3ccccc23)NC(=O)CCN)cc1 [compound 56, (R)—N-(1-(4-(4-methoxybenzyl)-5-phenethyl-4H-1,2,4-triazol-3-yl)-2-(1H-indol-3-yl)ethyl)-3-aminopropanamide]
0.7 nM	COc1ccc(Cn2c(CCc3ccccc3)nnc2[C@@H](Cc2c[nH]c3ccccc23)NC(=O)c2ccccn2)cc1 [compound 79, (R)—N-(1-(4-(4-methoxybenzyl)-5-phenethyl-4H-1,2,4-triazol-3-yl)-2-(1H-indol-3-yl)ethyl)picolinamide]
63 nM	COc1ccc(-n2c(CCc3ccccc3)nnc2[C@@H](Cc2c[nH]c3ccccc23)NC(=O)C2CCNCC2)c(OC)c1 [compound 163, N—((R)-2-(1H-indol-3-yl)-1-(4-(2,4-dimethoxyphenyl)-5-phenethyl-4H-1,2,4-triazol-3-yl)ethyl)piperidine-4-carboxamide]
120 nM	COc1cccc(Cn2c(Cc3ccccc3)nnc2[C@@H](Cc2c[nH]c3ccccc23)NC(=O)C(C)(C)N)c1 [compound 7, (R)—N-(1-(4-(3-methoxybenzyl)-5-benzyl-4H-1,2,4-triazol-3-yl)-2-(1H-indol-3-yl)ethyl)-2-amino-2-methylpropanamide]
12 nM	COc1ccc(Cn2c(CCc3ccccc3)nnc2[C@@H](Cc2c[nH]c3ccccc23)NC(=O)[C@@H]2CCCN2)cc1 [compound 46, (S)—N—((R)-1-(4-(4-methoxybenzyl)-5-phenethyl-4H-1,2,4-triazol-3-yl)-2-(1H-indol-3-yl)ethyl)pyrrolidine-2-carboxamide]
189 nM	COc1ccc(Cn2c(CCc3ccccc3)nnc2[C@@H](Cc2c[nH]c3ccccc23)NCCN)c(OC)c1 [compound 180, N-1-((R)-1-(4-(2,4-dimethoxybenzyl)-5-phenethyl-4H-1,2,4-triazol-3-yl)-2-(1H-indol-3-yl)ethyl)ethane-1,2-diamine]
